Experimental data as given in ChEMBL document CHEMBL3994622, “Design and synthesis of new RAF kinase-inhibiting antiproliferative quinoline derivatives. Part 2: Diarylurea derivatives” (Eur J Med Chem, 2017).

Legend:
Format in all cases: functional
A549 = test: Growth inhibition of human A549/ATCC cells assessed as cell growth at 0.1 uM incubated for 48 hrs by sulforhodamine B assay relative to control; settings: A549, 48 h, read-out: Activity
M14 = test: Growth inhibition of human M14 cells assessed as cell growth at 0.1 uM incubated for 48 hrs by sulforhodamine B assay relative to control; settings: M14, 48 h, read-out: Activity
A498 [1] = test: Growth inhibition of human A498 cells assessed as cell growth at 0.1 uM incubated for 48 hrs by sulforhodamine B assay relative to control; settings: A498, 48 h, read-out: Activity
K562 = test: Growth inhibition of human K562 cells assessed as cell growth at 10 uM incubated for 48 hrs by sulforhodamine B assay relative to control; settings: K562, 48 h, read-out: Activity
MDA-MB-435 [2] = test: Growth inhibition of human MDA-MB-435 cells assessed as cell growth at 0.005 uM incubated for 48 hrs by sulforhodamine B assay relative to control; settings: MDA-MB-435, 48 h, read-out: Activity
UACC-257 = test: Growth inhibition of human UACC257 cells assessed as cell growth at 0.005 uM incubated for 48 hrs by sulforhodamine B assay relative to control; settings: UACC-257, 48 h, read-out: Activity
786-0 [3] = test: Growth inhibition of human 786-0 cells assessed as cell growth at 0.005 uM incubated for 48 hrs by sulforhodamine B assay relative to control; settings: 786-0, 48 h, read-out: Activity
HCT-15 = test: Growth inhibition of human HCT15 cells assessed as cell growth at 0.05 uM incubated for 48 hrs by sulforhodamine B assay relative to control; settings: HCT-15, 48 h, read-out: Activity
MDA-MB-435 [4] = test: Growth inhibition of human MDA-MB-435 cells assessed as cell growth at 0.05 uM incubated for 48 hrs by sulforhodamine B assay relative to control; settings: MDA-MB-435, 48 h, read-out: Activity
OVCAR-8 = test: Growth inhibition of human OVCAR8 cells assessed as cell growth at 0.05 uM incubated for 48 hrs by sulforhodamine B assay relative to control; settings: OVCAR-8, 48 h, read-out: Activity
SN12C = test: Growth inhibition of human SN12C cells assessed as cell growth at 0.05 uM incubated for 48 hrs by sulforhodamine B assay relative to control; settings: read-out: Activity
NCI-H23 [5] = test: Growth inhibition of human NCI-H23 cells assessed as cell growth at 0.5 uM incubated for 48 hrs by sulforhodamine B assay relative to control; settings: NCI-H23, 48 h, read-out: Activity
SF-295 = test: Growth inhibition of human SF295 cells assessed as cell growth at 0.5 uM incubated for 48 hrs by sulforhodamine B assay relative to control; settings: SF-295, 48 h, read-out: Activity
Malme-3M = test: Growth inhibition of human MALME-3M cells assessed as cell growth at 0.5 uM incubated for 48 hrs by sulforhodamine B assay relative to control; settings: read-out: Activity
RXF 393 = test: Growth inhibition of human RXF393 cells assessed as cell growth at 0.5 uM incubated for 48 hrs by sulforhodamine B assay relative to control; settings: RXF 393, 48 h, read-out: Activity
Hs-578T = test: Growth inhibition of human Hs 578T cells assessed as cell growth at 0.5 uM incubated for 48 hrs by sulforhodamine B assay relative to control; settings: read-out: Activity
NCI-H226 [6] = test: Growth inhibition of human NCI-H226 cells assessed as cell growth at 5 uM incubated for 48 hrs by sulforhodamine B assay relative to control; settings: NCI-H226, 48 h, read-out: Activity
NCI-H23 [7] = test: Growth inhibition of human NCI-H23 cells assessed as cell growth at 5 uM incubated for 48 hrs by sulforhodamine B assay relative to control; settings: NCI-H23, 48 h, read-out: Activity
HCT-116 [8] = test: Growth inhibition of human HCT116 cells assessed as cell growth at 5 uM incubated for 48 hrs by sulforhodamine B assay relative to control; settings: HCT-116, 48 h, read-out: Activity
U-251 = test: Growth inhibition of human U251 cells assessed as cell growth at 5 uM incubated for 48 hrs by sulforhodamine B assay relative to control; settings: U-251, 48 h, read-out: Activity
MDA-MB-435 [9] = test: Growth inhibition of human MDA-MB-435 cells assessed as cell growth at 5 uM incubated for 48 hrs by sulforhodamine B assay relative to control; settings: MDA-MB-435, 48 h, read-out: Activity
786-0 [10] = test: Growth inhibition of human 786-0 cells assessed as cell growth at 5 uM incubated for 48 hrs by sulforhodamine B assay relative to control; settings: 786-0, 48 h, read-out: Activity
UO-31 = test: Growth inhibition of human UO31 cells assessed as cell growth at 5 uM incubated for 48 hrs by sulforhodamine B assay relative to control; settings: UO-31, 48 h, read-out: Activity
MDA-MB-231 = test: Growth inhibition of human MDA-MB-231 cells assessed as cell growth at 5 uM incubated for 48 hrs by sulforhodamine B assay relative to control; settings: MDA-MB-231, 48 h, read-out: Activity
NCI-H226 [11] = test: Growth inhibition of human NCI-H226 cells assessed as cell growth at 50 uM incubated for 48 hrs by sulforhodamine B assay relative to control; settings: NCI-H226, 48 h, read-out: Activity
NCI-H322M = test: Growth inhibition of human NCI-H322M cells assessed as cell growth at 50 uM incubated for 48 hrs by sulforhodamine B assay relative to control; settings: read-out: Activity
SK-MEL-28 = test: Growth inhibition of human SK-MEL-28 cells assessed as cell growth at 50 uM incubated for 48 hrs by sulforhodamine B assay relative to control; settings: SK-MEL-28, 48 h, read-out: Activity
CAKI-1 = test: Growth inhibition of human Caki1 cells assessed as cell growth at 50 uM incubated for 48 hrs by sulforhodamine B assay relative to control; settings: CAKI-1, 48 h, read-out: Activity
T47D = test: Growth inhibition of human T47D cells assessed as cell growth at 0.003 uM incubated for 48 hrs by sulforhodamine B assay relative to control; settings: read-out: Activity
A498 [12] = test: Growth inhibition of human A498 cells assessed as cell growth at 0.03 uM incubated for 48 hrs by sulforhodamine B assay relative to control; settings: A498, 48 h, read-out: Activity
HL-60(TB) = test: Growth inhibition of human HL-60(TB) cells assessed as cell growth at 0.3 uM incubated for 48 hrs by sulforhodamine B assay relative to control; settings: HL-60, 48 h, read-out: Activity
HCT-116 [13] = test: Growth inhibition of human HCT116 cells assessed as cell growth at 0.3 uM incubated for 48 hrs by sulforhodamine B assay relative to control; settings: HCT-116, 48 h, read-out: Activity
SK-OV-3 = test: Growth inhibition of human SKOV3 cells assessed as cell growth at 0.3 uM incubated for 48 hrs by sulforhodamine B assay relative to control; settings: SK-OV-3, 48 h, read-out: Activity
MDA-MB-468 = test: Growth inhibition of human MDA-MB-468 cells assessed as cell growth at 3 uM incubated for 48 hrs by sulforhodamine B assay relative to control; settings: MDA-MB-468, 48 h, read-out: Activity

`COc1cc2cc(Oc3ccc(NC(=O)Nc4ccc(Cl)c(Cl)c4)cc3)c(C)nc2cc1OC` gave a growth at 0.1 µM (A549) of 94%, a growth at 0.1 µM (M14) of 97% and a growth at 0.1 µM (A498 [1]) of 86%. For the same compound, the growth at 10 µM (K562) was 15%.
Compound `COc1cc2cc(Oc3ccc(NC(=O)Nc4cccc(C(F)(F)F)c4)cc3)c(C)nc2cc1OC` has a growth at 0.005 µM (MDA-MB-435 [2]) of 95%, a growth at 0.005 µM (UACC-257) of 95% and a growth at 0.005 µM (786-0 [3]) of 98%. It also gave a growth at 0.05 µM (HCT-15) of 94%, a growth at 0.05 µM (MDA-MB-435 [4]) of 96% and a growth at 0.05 µM (OVCAR-8) of 103%. For the same compound, the growth at 0.05 µM (SN12C) was 97%, the growth at 0.5 µM (NCI-H23 [5]) was 97% and the growth at 0.5 µM (SF-295) was 86%. The growth at 0.5 µM (Malme-3M) was 108%, the growth at 0.5 µM (RXF 393) was 103% and the growth at 0.5 µM (Hs-578T) was 99%. For the same compound, the growth at 5 µM (NCI-H226 [6]) was 3%, the growth at 5 µM (NCI-H23 [7]) was 9% and the growth at 5 µM (HCT-116 [8]) was 6%. For the same compound, the growth at 5 µM (U-251) was 5%, the growth at 5 µM (MDA-MB-435 [9]) was 13% and the growth at 5 µM (786-0 [10]) was 12%. The growth at 5 µM (UO-31) was 12%, the growth at 5 µM (MDA-MB-231) was -7% and the growth at 50 µM (NCI-H226 [11]) was -67%. For the same compound, the growth at 50 µM (NCI-H322M) was -29%, the growth at 50 µM (SK-MEL-28) was -74% and the growth at 50 µM (CAKI-1) was -51%.
Compound `COc1cc2cc(Oc3ccc(NC(=O)Nc4cc(C(F)(F)F)cc(C(F)(F)F)c4)cc3)c(C)nc2cc1OC` has a growth at 0.1 µM (A549) of 99%, a growth at 0.1 µM (M14) of 97% and a growth at 0.1 µM (A498 [1]) of 93%. For the same compound, the growth at 10 µM (K562) was -47%.
Compound `COc1cc2cc(Oc3ccc(NC(=O)Nc4ccc(Cl)c(C(F)(F)F)c4)cc3)c(C)nc2cc1OC` has a growth at 0.003 µM (T47D) of 94%, a growth at 0.03 µM (A498 [12]) of 68% and a growth at 0.3 µM (HL-60(TB)) of 111%. For the same compound, the growth at 0.3 µM (HCT-116 [13]) was 91% and the growth at 0.3 µM (SK-OV-3) was 103%.
Work on `Cc1nc2cc(O)c(O)cc2cc1Oc1ccc(NC(=O)Nc2ccc(Cl)c(Cl)c2)cc1` yielded a growth at 0.003 µM (T47D) of 102%, a growth at 0.03 µM (A498 [12]) of 75% and a growth at 0.3 µM (HL-60(TB)) of 106%. The growth at 0.3 µM (HCT-116 [13]) was 90%, the growth at 0.3 µM (SK-OV-3) was 108% and the growth at 3 µM (MDA-MB-468) was 92%.
